Where a SMILES comes first, the peptide text is derived from it. Bridges are numbered along the chain shown (N, C = ends). [ ]: non-standard residue; d: D form. R8 = C=CCCCCCC[C@@](C)(N)C(=O)O; R5 = C=CCCC[C@@](C)(N)C(=O)O; S5 = C=CCCC[C@](C)(N)C(=O)O
Experiments:
[1] = target: monomeric N protein (N^mono), recombinant N^K170A/R185A (Human respiratory syncytial virus A, UniProt P03418, K170A/R185A); experiment: Fluorescence polarization competition assay: displacement of FAM–P(1–40) from monomeric N; format: binding; conditions: FP competition with FAM–P(1–40) probe
monomeric N protein (N^mono), recombinant N^K170A/R185A, sequence (P03418 whole entry K170A/R185A, looked up): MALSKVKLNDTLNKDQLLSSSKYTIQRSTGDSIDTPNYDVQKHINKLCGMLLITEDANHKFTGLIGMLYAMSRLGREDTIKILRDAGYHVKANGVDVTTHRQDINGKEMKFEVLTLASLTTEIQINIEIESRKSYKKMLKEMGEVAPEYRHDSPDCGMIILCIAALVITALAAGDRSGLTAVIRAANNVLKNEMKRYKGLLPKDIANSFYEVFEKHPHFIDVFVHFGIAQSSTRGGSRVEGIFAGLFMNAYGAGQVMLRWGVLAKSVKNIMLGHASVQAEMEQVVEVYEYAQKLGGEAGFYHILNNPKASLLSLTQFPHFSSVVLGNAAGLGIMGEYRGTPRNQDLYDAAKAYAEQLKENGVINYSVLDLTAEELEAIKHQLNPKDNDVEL

[2] = circular dichroism; conditions: 10 mM phosphate; pH 7.5; 25 °C; 50 uM
[3] = Circular dichroism spectroscopy, α-helical content; format: physicochemical; conditions: CD, 10 mM phosphate buffer pH 7.5, 50 μM peptide, 25°C, calculated from ellipticity at 222 nm; average of three measurements
Experimental: The α-helical stabilization appeared to be higher for the i, i + 7 staples overall.
The circular dichroism spectra were acquired on a Chirascan spectropolarimeter. The samples were prepared in 10 mM phosphate buffer, pH 7.5, at a peptide concentration of 50 μM. Data were recorded at 25°C by step scan from 180 nm to 260 nm in a 0.5-mm-pathlength quartz cell using 0.2-nm-wavelength increments, a 1-nm bandwidth, and a response time of 1 s. Each spectrum was an average of three measurements and was subtracted from the buffer baseline. The data were converted to per residue molar ellipticity units (θ; in degrees · square centimeters · decimoles^−1 · number of residues^−1) and smoothed using Igor Pro software. Percent helicity was calculated as follows: (100 × CD222)/(C × N × {40,000 × [1 − (2.5/N)]}), where CD222 is the molar ellipticity (θ) at 222 nm (in millidegrees), N is the number of amino acids in the peptide, and C is the peptide molar concentration (in moles per liter).

[4] = system: rHRSV-mCherry; conditions: read-out: EC50 (half-maximal response inhibitory concentration), inhibition of RSV infection; HEp-2 cells, MOI 0.2, peptides added after 2 h infection, mCherry fluorescence at 48 h postinfection; duplicates
[5] = system: HEp-2 cells; experiment: HEp-2 cell viability (CellTiter-Glo luminescent cell viability assay); conditions: peptide alone at 50 μM; duplicates
Experimental: (B) HEp-2 cell viability upon treatment with peptides alone at peptide concentrations of 50, 25, and 12.5 μM. Error bars are standard deviations from duplicates. Data are representative of those from two independent experiments.
Cytotoxicity assays were done with the CellTiter-Glo luminescent cell viability assay (Promega). Each experiment was performed in duplicate and repeated at least twice.

| SMILES | Competitive binding to N^mono (in words) [1] | helicity [2] | % helicity [3] | EC50 [4] | Toxicity for uninfected HEp-2 cells (cell viability) [5] |
| --- | --- | --- | --- | --- | --- |
| CC[C@H](C)[C@H](NC(=O)[C@H](CO)NC(=O)[C@H](CCC(=O)O)NC(=O)[C@H](CC(C)C)NC(=O)[C@H](Cc1ccccc1)NC(=O)[C@H](CCCCN)NC(=O)[C@]1(C)CCCC=CCCC[C@@](C)(NC(=O)[C@H](CC(N)=O)NC(=O)[C@H](C)NC(=O)[C@H](CC(=O)O)NC(=O)[C@H](CCC(=O)O)NC(C)=O)C(=O)N[C@@H](CCCCN)C(=O)N[C@@H](C)C(=O)N1)C(=O)N[C@@H](CCCCN)C(=O)NCC(=O)N[C@@H](CCCCN)C(=O)N[C@@H](Cc1ccccc1)C(=O)N[C@@H](C)C(=O)N[C@@H](CO)C(N)=O [1a] (Ac-EDAN[R5]KA[S5]KFLESIKGKFAS-NH2; staple 5-8) | detrimental to the binding | 5.5% | 5.5% |  |  |
| CC(=O)N[C@@H](CCC(=O)O)C(=O)N[C@@H](CC(=O)O)C(=O)N[C@@H](C)C(=O)N[C@@H](CC(N)=O)C(=O)N[C@@H](CC(N)=O)C(=O)N[C@@H](CCCCN)C(=O)N[C@@H](C)C(=O)N[C@H](C(=O)N[C@@H](CCCCN)C(=O)N[C@@H](Cc1ccccc1)C(=O)N[C@]1(C)CCCC=CCCC[C@@](C)(C(=O)N[C@@H](CCCCN)C(=O)NCC(=O)N[C@@H](CCCCN)C(=O)N[C@@H](Cc2ccccc2)C(=O)N[C@@H](C)C(=O)N[C@@H](CO)C(N)=O)NC(=O)[C@H](CO)NC(=O)[C@H](CCC(=O)O)NC1=O)[C@@H](C)O [1d] (Ac-EDANNKATKF[R5]ES[S5]KGKFAS-NH2; staple 11-14) | no competition could be observed | 24.2% | 24.2% |  |  |
| CC[C@H](C)[C@H](NC(=O)[C@H](CO)NC(=O)[C@H](CCC(=O)O)NC(=O)[C@H](CC(C)C)NC(=O)[C@H](Cc1ccccc1)NC(=O)[C@H](CCCCN)NC(=O)[C@@H](NC(=O)[C@H](C)NC(=O)[C@H](CCCCN)NC(=O)[C@H](CC(N)=O)NC(=O)[C@H](CC(N)=O)NC(=O)[C@H](C)NC(=O)[C@H](CC(=O)O)NC(=O)[C@H](CCC(=O)O)NC(C)=O)[C@@H](C)O)C(=O)N[C@@H](CCCCN)C(=O)NCC(=O)N[C@]1(C)CCCC=CCCC[C@@](C)(C(N)=O)NC(=O)[C@H](C)NC(=O)[C@H](Cc2ccccc2)NC1=O [1g] (Ac-EDANNKATKFLESIKG[R5]FA[S5]-NH2; staple 17-20) | detrimental to the binding | 25.5% | 25.5% |  |  |
| CC(=O)N[C@@H](CCC(=O)O)C(=O)N[C@@H](CC(=O)O)C(=O)N[C@@H](C)C(=O)N[C@@H](CC(N)=O)C(=O)N[C@@H](CC(N)=O)C(=O)N[C@@H](CCCCN)C(=O)N[C@@H](C)C(=O)N[C@H](C(=O)N[C@@H](CCCCN)C(=O)N[C@@]1(C)CCCC=CCCC[C@@](C)(C(=O)N[C@@H](CCCCN)C(=O)NCC(=O)N[C@@H](CCCCN)C(=O)N[C@@H](Cc2ccccc2)C(=O)N[C@@H](C)C(=O)N[C@@H](CO)C(N)=O)NC(=O)[C@H](CO)NC(=O)[C@H](CCC(=O)O)NC(=O)[C@H](CC(C)C)NC1=O)[C@@H](C)O [2d] (Ac-EDANNKATK[S5]LES[S5]KGKFAS-NH2; staple 10-14) | no competition could be observed | 10.1% | 10.1% |  |  |
| CC[C@H](C)[C@H](NC(=O)[C@]1(C)CCCC=CCCCCCC[C@@](C)(NC(=O)[C@H](CC(N)=O)NC(=O)[C@H](CC(N)=O)NC(=O)[C@H](C)NC(=O)[C@]2(C)CCCC=CCCC[C@@](C)(NC(=O)[C@H](Cc3ccccc3)NC(=O)[C@H](CCC(=O)O)NC(C)=O)C(=O)NCC(=O)N[C@@H](CCC(=O)O)C(=O)N2)C(=O)N[C@@H](C)C(=O)N[C@@H]([C@@H](C)O)C(=O)N[C@@H](CCCCN)C(=O)N[C@@H](Cc2ccccc2)C(=O)N[C@@H](CC(C)C)C(=O)N[C@@H](CCC(=O)O)C(=O)N1)C(=O)N[C@@H](CCCCN)C(=O)NCC(=O)N[C@@H](CCCCN)C(=O)N[C@@H](Cc1ccccc1)C(=O)N[C@@H](C)C(=O)N[C@@H](CO)C(N)=O [4a3b] (Ac-EF[R5]GE[S5]ANN[R8]ATKFLE[S5]IKGKFAS-NH2; staple 3-6, 10-17) | inactive |  | 73.2% | 14.6 ± 13.9 µM |  |
| CC[C@H](C)[C@H](NC(=O)[C@]1(C)CCCC=CCCCCCC[C@@](C)(NC(=O)[C@H](CCC(=O)O)NC(=O)[C@H](CC(N)=O)NC(=O)[C@H](C)NC(=O)[C@]2(C)CCCC=CCCC[C@@](C)(NC(=O)[C@H](Cc3ccccc3)NC(=O)[C@H](CCC(=O)O)NC(C)=O)C(=O)NCC(=O)N[C@@H](CCC(=O)O)C(=O)N2)C(=O)N[C@@H](C)C(=O)N[C@@H]([C@@H](C)O)C(=O)N[C@@H](CCCCN)C(=O)N[C@@H](Cc2ccccc2)C(=O)N[C@@H](CC(C)C)C(=O)N[C@@H](C)C(=O)N1)C(=O)N[C@@H](CCCCN)C(=O)NCC(=O)N[C@@H](CCCCN)C(=O)N[C@@H](Cc1ccccc1)C(=O)N[C@@H](C)C(=O)N[C@@H](CO)C(N)=O [5b] (Ac-EF[R5]GE[S5]ANE[R8]ATKFLA[S5]IKGKFAS-NH2; staple 3-6, 10-17) |  |  | >100% | 16.9 ± 5.1 µM | some toxicity |
| CC[C@H](C)[C@H](NC(=O)[C@]1(C)CCCC=CCCCCCC[C@@](C)(NC(=O)[C@H](CC(N)=O)NC(=O)[C@H](CC(N)=O)NC(=O)[C@H](C)NC(=O)[C@]2(C)CCCC=CCCC[C@@](C)(NC(=O)[C@H](Cc3ccccc3)NC(=O)[C@H](CCC(=O)O)NC(C)=O)C(=O)NCC(=O)N[C@@H](CCC(=O)O)C(=O)N2)C(=O)N[C@@H](C)C(=O)N[C@@H]([C@@H](C)O)C(=O)N[C@@H](CCC(=O)O)C(=O)N[C@@H](Cc2ccccc2)C(=O)N[C@@H](CC(C)C)C(=O)N[C@@H](CCCCN)C(=O)N1)C(=O)N[C@@H](CCCCN)C(=O)NCC(=O)N[C@@H](CCCCN)C(=O)N[C@@H](Cc1ccccc1)C(=O)N[C@@H](C)C(=O)N[C@@H](CO)C(N)=O [5c] (Ac-EF[R5]GE[S5]ANN[R8]ATEFLK[S5]IKGKFAS-NH2; staple 3-6, 10-17) |  |  | 79.7% | 18.5 ± 10.6 µM | no toxicity |

From PMC7508628, “Targeting the Respiratory Syncytial Virus N^0-P Complex with Constrained α-Helical Peptides in Cells and Mice” (Antimicrobial Agents and Chemotherapy, 2020)
